Read-outs that look alike come from different tables or passages of the source. Bridge positions count the residues as written; N and C are the ends. Square brackets hold non-standard residues; d marks the D form. Peptide text beside a SMILES is read from it. * marks the point of attachment. Phe(2-CONH2) = NC(=O)c1ccccc1C[C@H](N)C(=O)O; Orn(iPr) = CC(C)NCCC[C@H](N)C(=O)O; Oxazole2carbonyl = O=C(c1ncco1)*; 3Pal = N[C@@H](Cc1cccnc1)C(=O)O
Tests used:
Solubility of AXN-001 = format: physicochemical; conditions: neutral pH
[1] = Phase I first-in-human study, pharmacokinetics after single ascending subcutaneous doses in healthy volunteers; format: in vivo; conditions: for AUC(0-inf) / AUC(0-t) / CL/F / Cmax / Tmax / half-life / level at 1 h / level at 2 h / level at 3 h / level at 0.08 h / level at 0.17 h / level at 0.25 h / level at 0.33 h / level at 0.5 h / level at 0.75 h / level at 4 h / level at 6 h / level at 8 h: human, plasma, mean; for level at 1 h: nominal time 1 h; for level at 1 h / level at 2 h / level at 3 h / level at 0.08 h / level at 0.17 h / level at 0.25 h / level at 0.33 h / level at 0.5 h / level at 0.75 h / level at 4 h / level at 6 h / level at 8 h: read-out: Plasma Concentration AXN-001; for level at 2 h: nominal time 2 h; for level at 3 h: nominal time 3 h; for level at 0.08 h: nominal time 0.08 h; for level at 0.17 h: nominal time 0.17 h; for level at 0.25 h: nominal time 0.25 h; for level at 0.33 h: nominal time 0.33 h; for level at 0.5 h: nominal time 0.50 h; for level at 0.75 h: nominal time 0.75 h; for level at 4 h: nominal time 4 h; for level at 6 h: nominal time 6 h; for level at 8 h: nominal time 8 h
Method: For Phase I clinical studies, the 32 mg/mL pharmaceutical composition was dosed subcutaneously. The Phase I clinical trial was a randomised, double-blind, placebo-controlled, first-in-human study of the safety, tolerability and pharmacokinetics of AXN-001 in healthy volunteers under Protocol No. AXN-001-01 .
The pharmacokinetic objective of the clinical trial was to provide pharmacokinetic analysis of AXN-001 following single ascending subcutaneous doses of AXN-001. The study design included the following Cohorts: • Cohort 1: Dose 1 mg (2 mg/mL formulation); • Cohort 2: Dose 2 mg (4 mg/mL formulation); • Cohort 3: Dose 4 mg (8 mg/mL formulation); • Cohort 4: Dose 8 mg (16 mg/mL formulation); • Cohort 5: Dose 16 mg (32 mg/mL formulation).
Participants were administered a single dose (0.5 mL) of AXN-001 or placebo via subcutaneous (SC) injection into the abdomen. Blood samples were collected at specified time points for pharmacokinetic analysis (5,10,15,20,30,45,60 minutes; 2,3,4,6,8,12,24 hours). Individual plasma concentrations of ANX-001 were determined and used for analyses.
Pharmacokinetic (PK) parameters of AXN-001 were determined using Phoenix WinNonlin version 8.3. All concentrations below the limit of quantification (BLQ) were set to zero for the purpose of the PK analysis. All AUC determinations were made using linear trapezoidal method. The following parameters were determined: Cmax Maximum observed concentration. as read directly from the observed data. Tmax Time to maximum concentration T10nM Time to 10 nM T30nM Time to 30 nM T100nM Time to 100 nM AUC0-t Area under the concentration-time curve from time zero to the time of the last measurable concentration, calculated using linear trapezoidal rule AUC0-inf Area under the concentration-time curve from time zero to infinity, calculated using linear trapezoidal rule %AUCextrap The portion of AUC determined by extrapolation t1/2 Apparent terminal elimination half-life CL/F or CL Total apparent body clearance Vz/F or Vz Apparent volume of distribution λz Terminal elimination rate constant

solubility (Solubility of AXN-001): low
subjects who achieved plasma concentrations of 30nM ([1]; 1 mg cohort): 1 of 6
subjects who achieved plasma concentrations of 30nM ([1]; 2 mg cohort): 5 of 6
subjects who achieved 100nM plasma concentrations ([1]; 4 mg cohort): 2/5
subjects who achieved plasma concentrations of 30nM ([1]; 4, 8, and 16 mg cohort): All subjects
subjects who achieved 100nM plasma concentrations ([1]; 8 and 16 mg cohorts): All subjects
time to achieve plasma concentrations of 10nM AXN-001 ([1]; all subjects at all doses (1-16 mg SC)): less than 15 minutes
AUC(0-inf) ([1]; single SC dose 1 mg): 0.101 µg·h/mL
AUC(0-t) ([1]; single SC dose 1 mg): 0.0961 µg·h/mL
CL/F ([1]; single SC dose 1 mg): 167 mL/min
Cmax ([1]; single SC dose 1 mg): 0.0395 µg/mL
Tmax ([1]; single SC dose 1 mg): 0.792 h
half-life ([1]; single SC dose 1 mg): 1.31 h
level at 1 h ([1]; single SC dose 1 mg): 0.0351 µg/mL
level at 2 h ([1]; single SC dose 1 mg): 0.0228 µg/mL
level at 3 h ([1]; single SC dose 1 mg): 0.0137 µg/mL
AUC(0-inf) ([1]; single SC dose 2 mg): 0.167 µg·h/mL
AUC(0-t) ([1]; single SC dose 2 mg): 0.159 µg·h/mL
CL/F ([1]; single SC dose 2 mg): 210 mL/min
Cmax ([1]; single SC dose 2 mg): 0.065 µg/mL
Tmax ([1]; single SC dose 2 mg): 0.792 h
half-life ([1]; single SC dose 2 mg): 1.35 h
level at 0.08 h ([1]; single SC dose 2 mg): 0.0113 µg/mL
level at 0.17 h ([1]; single SC dose 2 mg): 0.0216 µg/mL
level at 0.25 h ([1]; single SC dose 2 mg): 0.0315 µg/mL
level at 0.33 h ([1]; single SC dose 2 mg): 0.0404 µg/mL
level at 0.5 h ([1]; single SC dose 2 mg): 0.0557 µg/mL
level at 0.75 h ([1]; single SC dose 2 mg): 0.0626 µg/mL
level at 1 h ([1]; single SC dose 2 mg): 0.0602 µg/mL
level at 2 h ([1]; single SC dose 2 mg): 0.0381 µg/mL
level at 3 h ([1]; single SC dose 2 mg): 0.0213 µg/mL
level at 4 h ([1]; single SC dose 2 mg): 0.0114 µg/mL
level at 6 h ([1]; single SC dose 2 mg): 0.00479 µg/mL
level at 8 h ([1]; single SC dose 2 mg): 0.000713 µg/mL
AUC(0-inf) ([1]; single SC dose 4 mg): 0.343 µg·h/mL
AUC(0-t) ([1]; single SC dose 4 mg): 0.337 µg·h/mL
CL/F ([1]; single SC dose 4 mg): 197 mL/min
Cmax ([1]; single SC dose 4 mg): 0.133 µg/mL
Tmax ([1]; single SC dose 4 mg): 0.7 h
half-life ([1]; single SC dose 4 mg): 1.36 h
level at 0.08 h ([1]; single SC dose 4 mg): 0.0096 µg/mL
level at 0.17 h ([1]; single SC dose 4 mg): 0.0353 µg/mL
level at 0.25 h ([1]; single SC dose 4 mg): 0.0714 µg/mL
level at 0.33 h ([1]; single SC dose 4 mg): 0.0878 µg/mL
level at 0.5 h ([1]; single SC dose 4 mg): 0.115 µg/mL
level at 0.75 h ([1]; single SC dose 4 mg): 0.123 µg/mL
level at 1 h ([1]; single SC dose 4 mg): 0.134 µg/mL
level at 2 h ([1]; single SC dose 4 mg): 0.0825 µg/mL
level at 3 h ([1]; single SC dose 4 mg): 0.0447 µg/mL
level at 4 h ([1]; single SC dose 4 mg): 0.0235 µg/mL
level at 6 h ([1]; single SC dose 4 mg): 0.00825 µg/mL
level at 8 h ([1]; single SC dose 4 mg): 0.00309 µg/mL
AUC(0-inf) ([1]; single SC dose 8 mg): 0.594 µg·h/mL
AUC(0-t) ([1]; single SC dose 8 mg): 0.585 µg·h/mL
CL/F ([1]; single SC dose 8 mg): 225 mL/min
Cmax ([1]; single SC dose 8 mg): 0.244 µg/mL
Tmax ([1]; single SC dose 8 mg): 0.75 h
half-life ([1]; single SC dose 8 mg): 1.47 h
level at 0.08 h ([1]; single SC dose 8 mg): 0.0321 µg/mL
level at 0.17 h ([1]; single SC dose 8 mg): 0.084 µg/mL
level at 0.25 h ([1]; single SC dose 8 mg): 0.118 µg/mL
level at 0.33 h ([1]; single SC dose 8 mg): 0.144 µg/mL
level at 0.5 h ([1]; single SC dose 8 mg): 0.199 µg/mL
level at 0.75 h ([1]; single SC dose 8 mg): 0.24 µg/mL
level at 1 h ([1]; single SC dose 8 mg): 0.226 µg/mL
Structure (SMILES): CC(C)NCCC[C@@H]1NC(=O)[C@@H](NC(=O)[C@H](Cc2ccccc2C(N)=O)NC(=O)[C@H](NC(=O)c2ncco2)C(C)C)CSSC[C@@H](C(=O)N[C@@H](Cc2cccnc2)C(N)=O)NC(=O)[C@H](Cc2ccccc2)NC(=O)[C@@H]2CCCN2C(=O)CNC(=O)[C@H](C(C)C)NC(=O)[C@H](CC(=O)O)NC1=O [AXN-001, Oxazole-2-carbonyl-D-Val-Phe(2-Cbm)-c(Cys-Orn (iPr)-Asp-Val-Gly-Pro-Phe-Cys)-3Pal-NH2] (Oxazole2carbonyl-[dV][Phe(2-CONH2)]C[Orn(iPr)]DVGPFC[3Pal]-NH2; disulfide 3-10)
